# Data from US20240316036A1, “DISULFIDE CONTAINING THERAPEUTICS AND DIAGNOSTICS” (Singular Genomics Systems, Inc., priority 2023, published 2024).
# Assay: Cleavage kinetics of cleavable linking moieties (CLM) with reducing agent THPP, compounds immobilized on a solid support
# Format: physicochemical
# Conditions: 1 mM THPP, 55° C.
# Procedure: For the assay, a plurality of compounds containing the CLM was immobilized on a solid support. Next, a cleavage solution containing 10 mM THPP as a reducing agent was introduced for controlled periods of time. A second labeled compound was introduced to the solid support; compounds without a CLM will bind the labeled compounds. The cleavage reaction was carried out at 55° C., in a buffer solution at 9.5 pH. The degree of cleavage was measured as the percent of compounds that include a labeled compound as a function of time.
# A similar assay as described supra was performed, except that the concentration of the reducing agent was diluted to 1 mM of THPP and the cleavage reaction was carried out at 55° C.
substance,measurement,value
methylene disulfide [CLM #1],cleavage reaction,slow
